Assay [1] deals with T1, DAGLβ (Mus musculus, UniProt Q91WC9).
T1 sequence (Q91WC9 1-669): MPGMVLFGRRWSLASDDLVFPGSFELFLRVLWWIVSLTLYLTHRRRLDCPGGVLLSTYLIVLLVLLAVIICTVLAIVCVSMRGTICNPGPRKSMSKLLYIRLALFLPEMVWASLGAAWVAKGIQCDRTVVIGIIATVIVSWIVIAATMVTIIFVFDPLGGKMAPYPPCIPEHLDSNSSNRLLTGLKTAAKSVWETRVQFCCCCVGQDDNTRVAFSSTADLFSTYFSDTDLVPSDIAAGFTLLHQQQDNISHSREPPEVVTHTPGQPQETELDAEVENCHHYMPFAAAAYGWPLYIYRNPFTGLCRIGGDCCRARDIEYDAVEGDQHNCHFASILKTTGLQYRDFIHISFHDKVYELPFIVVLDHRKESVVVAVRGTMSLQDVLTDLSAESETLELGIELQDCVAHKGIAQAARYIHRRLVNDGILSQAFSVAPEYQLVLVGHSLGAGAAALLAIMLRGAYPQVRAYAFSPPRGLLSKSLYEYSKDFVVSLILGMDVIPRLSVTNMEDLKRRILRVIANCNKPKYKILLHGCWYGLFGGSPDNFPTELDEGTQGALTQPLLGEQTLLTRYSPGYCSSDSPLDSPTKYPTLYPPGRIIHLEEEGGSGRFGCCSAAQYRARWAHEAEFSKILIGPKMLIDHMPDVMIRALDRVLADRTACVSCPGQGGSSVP
In words: inhibition of DAGLβ in transfected HEK293T lysate. The format is biochemical.

Assay [2] deals with T1, DAGLβ. Description: competitive ABPP on DAGLβ-transfected HEK293T proteome. In kind it is biochemical.
Assay [3] has as its target T2, ABHD6 (Mus musculus, UniProt Q8R2Y0).
T2 sequence (Q8R2Y0 1-336): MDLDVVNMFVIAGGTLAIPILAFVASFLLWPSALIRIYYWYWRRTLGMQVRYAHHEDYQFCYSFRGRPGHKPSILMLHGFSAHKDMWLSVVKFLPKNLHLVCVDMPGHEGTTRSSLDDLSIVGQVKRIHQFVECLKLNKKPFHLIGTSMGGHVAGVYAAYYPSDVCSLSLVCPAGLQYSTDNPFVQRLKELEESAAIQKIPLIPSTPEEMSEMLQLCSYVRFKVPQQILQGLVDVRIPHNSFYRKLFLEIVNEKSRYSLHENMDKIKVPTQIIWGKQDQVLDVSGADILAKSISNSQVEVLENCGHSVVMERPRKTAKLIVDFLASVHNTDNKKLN
Description: competitive ABPP in mouse brain proteome. In kind it is biochemical.

In assay [4] the target is T3, human DAGLβ (Homo sapiens, UniProt Q8NCG7).
T3 sequence (Q8NCG7 1-672): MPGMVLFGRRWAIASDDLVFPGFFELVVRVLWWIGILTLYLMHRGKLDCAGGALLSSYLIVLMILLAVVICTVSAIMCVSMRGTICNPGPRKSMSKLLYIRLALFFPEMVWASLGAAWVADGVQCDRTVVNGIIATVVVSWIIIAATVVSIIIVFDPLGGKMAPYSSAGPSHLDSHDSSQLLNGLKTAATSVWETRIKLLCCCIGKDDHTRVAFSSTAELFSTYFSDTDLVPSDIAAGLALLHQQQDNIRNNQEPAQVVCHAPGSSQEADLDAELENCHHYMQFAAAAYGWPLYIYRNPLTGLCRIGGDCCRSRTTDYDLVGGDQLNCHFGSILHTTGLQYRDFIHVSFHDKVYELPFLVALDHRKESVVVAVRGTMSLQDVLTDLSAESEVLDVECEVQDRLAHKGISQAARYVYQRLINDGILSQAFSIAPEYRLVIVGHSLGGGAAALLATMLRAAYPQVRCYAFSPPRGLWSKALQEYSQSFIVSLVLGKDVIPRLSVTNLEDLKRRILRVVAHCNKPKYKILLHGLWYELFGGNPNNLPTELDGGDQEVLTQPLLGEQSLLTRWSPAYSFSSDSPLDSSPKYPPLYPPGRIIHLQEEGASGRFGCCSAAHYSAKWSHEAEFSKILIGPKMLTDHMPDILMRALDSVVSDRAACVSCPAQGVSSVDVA
In words: in vitro inhibition of human DAGLβ activity. In kind it is cell-based.

In general, IC50 refers to the concentration that gives 50% inhibition. On to `O=C(N1CCCCC1Cc1ccccc1)n1cc(-c2ccc(Br)cc2)nn1` (stereo not shown) [compound 31, KT116], for which the IC50 in assay [1] was determined as 30 nM.
`O=C(N1CCCCC1Cc1ccccc1)n1cc(-c2ccc(-c3ccccc3)cc2)nn1` (stereo not shown) [compound 32, KT109]: the IC50 in assay [2] was found to be 42 nM; in assay [3], 16 nM; in assay [4], 580 nM.

The record behind these values is PMC3513945 (Nature chemical biology, 2012).
